Measured values taken from patent US5093045A, “Biologically active lipids binding membrane receptors” (priority 1990, dated 1992).
Values joined by “and” are separate entries in the source; they are usually repeats but may differ in a detail not shown here. Equal entries are not always repeated.

Columns and labels:
[1] = test system: phorboid receptor (PDBu receptor) of murine brain membranous fraction (BMF); assay: PDBu binding inhibiting activity (PBIA): inhibition of 3H-PDBu binding to murine brain membranous fraction; set-up: species or system mouse
Experimental: Pooled murine brains from approximately 2 month old mice, NFS strain, were minced with scissors, suspended in 1 mM triethanolamine-HCl, pH 7.4, and disrupted with a polytron P-10 (Brinkman). This and all subsequent steps were performed at 4° C. The homogenate was centrifuged for 10 minutes at 1700xg; the supernate was removed and centrifuged for 60 minutes at 105,000xg. The resulting pellet was suspended in one-fourth of the initial volume of PBS. The suspension was aliquoted into a small volume and stored at -70° C.
The binding of ^3 H-PDBu to BMF or soluble receptors was performed in duplicate in 12×75mm disposable glass tubes (Kimax) both in the absence and presence of 20μg/ml unlabeled PDBu; the binding mixture contained 5ng of ^3 H-PDBu (4×10^4 cpm), 0.2% final concentration of DMSO and BMF (50μg protein) or soluble receptors in a total volume of 0.25 ml binding buffer (BB) consisting of Dulbecco's […] (DMEM) containing bovine serum albumin (BSA lmg/ml) and N,N,-bis-(2-hydroxyethyl)-2-amino-ethane sulfonic acid (BES, 5mM), adjusted to pH 6.8. After incubation for 30 minutes at 23° C. the tubes were chilled, 0.5 ml cold 4% calf serum (Colorado Serum Co., Denver, CO) and 0.7 ml cold polyethylene glycol (PEG 6,000) in 1 mM Tris-HCl, pH 7.4 was added to each tube, the contents vortexed, the tubes allowed to stand for 15 min at 4° C., and centrifuged for 10 min at 1500xg at 4° C. The supernatant solution was carefully aspirated off, the pellet suspended in 2.5 ml of cold 10% PEG in 0.1 M Tris-HCl, pH 7.4, containing 0.5% SDS and 1 mM EDTA). The mixture was transferred to counting vials and 10 ml of Aquassure (NEN) was added to each vial. The vials were vigorously shaken and radioactivity determined using a Beckman beta counter.
The loss of the ability of ^3 H-PDBu to bind to receptors in the presence of ligand was used as the measure of inhibiting activity. PDBu binding inhibition assays were performed as described above, except the test materials were added to the reaction mixture and binding measured as described above.
The PBIA of ligand was equated with that of PDBu by the use of the term ng equivalent calculated from a plot of [^3 H]PDBu bound versus the log molar concentration for several biologically active phorbol esters (2). The curve corresponding to PDBu inhibition of PDBu binding was used by reading the molar concentration corresponding to the percent of control binding of ^3 H]PDBu in the presence of ligand to obtain the units ng PDBu equivalent of ligand.

[2] = test system: arachidonic acid cascade in mink lung cells; assay: Stimulation of arachidonic acid cascade: release of radioactivity from cells prelabeled with arachidonic acid; type: cell-based; settings: cells previously labeled with radioactive arachidonic acid
From the text: The release of radioactivity into the medium from cells previously labeled with radioactive arachidonic was used as a measure of activation of eicosanoids pathway. […] PBIL from all sources inhibited PDBu-receptor interaction.

| Inhibition (%) of binding of PDBu to its receptor ([1]; concentration 0.8 nM) | Inhibition (%) of binding of PDBu to its receptor ([1]; concentration 0.4 nM) | SMILES | further results |
| --- | --- | --- | --- |
| 20% | – | CCCCCCCC/C=C\CCCCCCCC(=O)OCC(CO)OC(=O)CCCCCCC/C=C\CCCCCCCC (centres unmarked) [1,2-Diolein] | – |
| 15% | – | CCCCC/C=C\C/C=C\CCCCCCCC(=O)OCC(O)COC(=O)CCCCCCC/C=C\C/C=C\CCCCC [1,3-Dilinolein] | – |
| – | 1% | CCCCCCCCCCCCCC(=O)OCC(O)COC(=O)CCCCCCCCCCCCC [1,3-Dimyritin] | – |
| 11% | – | CCCCCCCC/C=C\CCCCCCCC(=O)OCC(O)COC(=O)CCCCCCC/C=C\CCCCCCCC [1,3-Diolein] | – |
| -12% | – | CCCCCCCCCCCCCCCC(=O)OCC(O)COC(=O)CCCCCCCCCCCCCCC [1,3-Dipalmitin] | – |
| 94% | 82% | CCCCC/C=C\C/C=C\CCCCCCCC(=O)OC[C@@H](O)CO [1-Monolinolein] | Competition with phorbol dibutyrate for its receptor (qualitative) [1]: compete with phorbol dibutyrate for its receptor; Inhibition (%) of binding of PDBu to its receptor ([1]; concentration 0.2 nM): 39%; Stimulation of arachidonic acid cascade (release of radioactivity into the medium) ([2]; listed as 1-monolinolein): stimulate the arachidonic acid cascade; Stimulation of arachidonic acid cascade (release of radioactivity into the medium) ([2]; listed as monolinolein): activated the arachidonic acid cascade |
| – | 0% | CCCCCCCCCCCCCC(=O)OCC(O)CO (centres unmarked) [1-Monomyristin] | – |
| – | – | CCCCCCCCCCCCCCCC(=O)OCC(O)CO (centres unmarked) [1-Monopalmitin] | Inhibition (%) of binding of PDBu to its receptor ([1]; concentration 0.8 nM, 0.0008 µM): -6% and -15% |
| 82% | 36% | CCCCCC/C=C\CCCCCCCC(=O)OCC(O)CO (centres unmarked) [1-Monopalmitolein] | Competition with phorbol dibutyrate for its receptor (qualitative) [1]: compete with phorbol dibutyrate for its receptor; Stimulation of arachidonic acid cascade (release of radioactivity into the medium) [2]: stimulate the arachidonic acid cascade |
| – | 0% | OCC(O)CO [Glycerol] | – |
| 15% | 10% | CCCCC/C=C\C/C=C\CCCCCCCC(=O)O [Linoleic acid-Na] | – |
| – | 11% | CCCCCCCCCCCC(=O)OCC(COC(=O)CCCCCCCCCCC)OC(=O)CCCCCCCCCCC [Trilaurin] | – |
| -1% | – | CCCCC/C=C\C/C=C\CCCCCCCC(=O)OCC(COC(=O)CCCCCCC/C=C\C/C=C\CCCCC)OC(=O)CCCCCCC/C=C\C/C=C\CCCCC [Trilinolein] | – |
| – | 15% | CCCCCCCCCCCCCC(=O)OCC(COC(=O)CCCCCCCCCCCCC)OC(=O)CCCCCCCCCCCCC [Trimystrin] | – |
| -8% | -11% | CCCCCCCCCCCCCCCC(=O)OCC(COC(=O)CCCCCCCCCCCCCCC)OC(=O)CCCCCCCCCCCCCCC [Tripalmitin] | – |

| SMILES | Inhibition (%) of binding of PDBu to its receptor ([1]; concentration 0.8 nM) | Inhibition (%) of binding of PDBu to its receptor ([1]; concentration 0.4 nM) | further results |
| --- | --- | --- | --- |
| CCCCC/C=C\C/C=C\C/C=C\C/C=C\CCCC(=O)OCC(O)CO (centres unmarked) [1-Monoarachidonin] | 95% | 91% | Competition with phorbol dibutyrate for its receptor (qualitative) [1]: compete with phorbol dibutyrate for its receptor; Inhibition (%) of binding of PDBu to its receptor ([1]; concentration 0.2 nM): 41%; Stimulation of arachidonic acid cascade (release of radioactivity into the medium) [2]: stimulate the arachidonic acid cascade |
| CC/C=C\C/C=C\C/C=C\CCCCCCCC(=O)OCC(O)CO (centres unmarked) [1-Monolinolenin] | 94% | 74% | Inhibition (%) of binding of PDBu to its receptor ([1]; concentration 0.2 nM): 27% |
| CCCCCCCC/C=C\CCCCCCCC(=O)OCC(O)CO (centres unmarked) [1-Monoolein] | 63% | 21% | – |
